# Assay results from PMC3750730 (Neuroscience letters, 2013).
# Tests used:
# [1] = test system: brain glucose; conditions: rats treated with fluoxetine; cited from earlier work
# [2] = test system: rats; conditions: rats treated with fluoxetine; cited from earlier work
# [3] = biological target: class II HDAC enzyme subtypes; assay: In vitro HDAC deacetylase activity assay; format: biochemical; conditions: read-out: IC50 class II HDAC enzyme subtypes; recombinant human HDACs
# [4] = Rat weight during seven days of daily treatment; format: in vivo, rats; conditions: Cpd-60 22.5 mg/kg, CI-994 5 mg/kg, vs vehicle-treated controls
IC50 [3] [µM],effect on rat weight over seven days [4],Structure (SMILES),brain glucose changes [1],behavioral effects in the forced swim test [2]
,,CNCCC(Oc1ccc(C(F)(F)F)cc1)c1ccccc1 (stereo not shown) [fluoxetine],4–14%,antidepressant behavioral effects
> 33,did not significantly affect rat weight,CC(=O)Nc1ccc(C(=O)Nc2ccccc2N)cc1 [CI-994],,
